{"source": "patent US12527833B2", "about": "“Pharmaceutical composition made from hydrophobic phytochemicals dispersed in sesame oil to enhance bioactivity” (ARJUNA NATURAL PVT. LTD., priority 2017, dated 2026)", "key": {"[1]": {"tested_on": "Carrageenan induced paw oedema", "test": "Carrageenan paw oedema in rats: Boswellia extract, sesame oil and their combinations (Example 8)", "type": "in vivo", "experimental": "The animals were housed in polypropylene cages and maintained under standard animal house conditions (12:12 hour light/dark cycle at 24±2° C. and 45-65% relative humidity). The rats had free access to standard pellet diet and water. […] were divided into 9 groups comprising of 3 rats in each group. The rats were deprived of food, but had free access to drinking water for 12 h prior to the experiment. The treatment was as follows: • Group 1: Untreated control. • Group 2: 10 mg/Kg Diclofenac. • Group 3: 20 mg/Kg Hydrophobic Boswellia extract with 2% AKBA (made as per example 2). • Group 4: 20 mg/Kg Hydrophobic Boswellia extract with 10% AKBA (made as per example 1). • Group 5: 30 mg/Kg Sesame seed oil about 0.9% sesame lignans. • Group 6: 50 mg/Kg Simple blend of Boswellia extract with 2% AKBA with Sesame seed oil with 10% sesame lignans (made as per example 6; using AKBA2). • Group 7: 50 mg/Kg Homogenized dispersion of hydrophobic Boswellia extract with 2% AKBA with sesame oil with 10% sesame lignans. (Made as per example 4). • Group 8: 50 mg/Kg Simple hydrophobic Boswellia extract with 10% AKBA with sesame oil with 10% sesame lignans. (Made as per example 6, F1). • Group 9: 50 mg/Kg Homogenized dispersion hydrophobic Boswellia extract with 10% AKBA with sesame oil with 10% sesame lignans. (Made as per example 4). After 12 hour fasting, baseline paw volume was recorded for each rat using digital plethysmometer (Ugo Basile, […]). Carrageenan (0.1 ml of 1%) in saline (0.9% NaCl) was injected into the plantar surface of the right hind paw of the animals. The experimental groups were given the designated extract/standard orally, 30 minutes prior to the injection of the carrageenan. […] The oedema was expressed as an increase in the volume of paw from baseline value, and the percentage of inhibition for each rat was calculated."}, "[2]": {"tested_on": "Carrageenan induced paw edema", "test": "Carrageenan paw edema in rats: different ratios of Boswellia and sesame oil (Example 10)", "type": "in vivo", "experimental": "The animals were housed in polypropylene cages and maintained under standard animal house conditions (12:12 hour light/dark cycle at 24±2° C. and 45-65% relative humidity). The rats had free access to standard pellet diet and water. 27 rats were divided into 9 groups comprising of 3 rats in each group. The rats were deprived of food, but had free access to drinking water for 12 h prior to the experiment. The treatment was as follows: After 12 hour fasting, baseline paw volume was recorded for each rat using digital plethysmometer (Ugo Basile, […]). Carrageenan (0.1 ml of 1%) in saline (0.9% NaCl) was injected into the plantar surface of the right hind paw of the animals. The experimental groups were given the designated extract/standard orally, 30 minutes prior to the injection of the carrageenan. After injection of carrageenan, paw volume was recorded at 3 hr to 6 hr post carrageenan. The edema was expressed as an increase in the volume of paw from baseline value, and the percentage of inhibition for each rat was calculated. Different compositions of sesame oil with boswellia was tested to find out the optimum ratio with enhanced activity. Each composition of boswellia has undergone a regress milling and grinding resulting in SSA of greater than 1.2×10^3 m^2/kg. • Group 1: 50 mg/Kg AKBA10+Sesame oil (2:3). • Group 2: 50 mg/Kg, AKBA10+Sesame oil (5:7) • Group 3: 50 mg/Kg AKBA10+Sesame oil (9:11) • Group 4: 50 mg/Kg AKBA10+Sesame oil (1:3) • Group 5: 50 mg/Kg AKBA10+Sesame oil (1:5) • Group 6: 50 mg/Kg AKBA10+Sesame oil (1:9) • Group 7: 50 mg/Kg AKBA10+Sesame oil (1:1) • Group 8: 50 mg/Kg AKBA10+Sesame oil • Group 9: 10 mg/Kg Diclofenac"}, "[3]": {"tested_on": "Carrageenan Induced Paw Edema", "test": "Anti-inflammatory activity in carrageenan induced paw edema in rats (Example 11)", "type": "in vivo, SD rats", "settings": "6 h after carrageenan; oral; dose per group 10-100 mg/Kg; 6 rats per group", "experimental": "SD rats (M/F) weighing 180-220 gm. were selected for the study. The animals were acclimatized for a period of five days and they were fed with standard pellet diet and water ad libitum. After five days of acclimatization, the rats were deprived of food, but had free access to drinking water for 12 hours prior to the experiment. Right hind paw of each rat was marked at the tibio-tarsal junction and baseline paw volume was determined using a digital plethysmometer (UGO BASILE, ITALY). Rats were divided into different groups keeping 6 rats in each group. Test sample/standard NSAID/vehicle was fed orally at designated dose. After 30 minutes of test sample/standard/vehicle, 0.1 ml carrageenan (1% suspension in 0.9% NaCl) was injected to the animals in subplantar region of the right hind paw. The paw volume was again determined for all the animals at 6 h after carrageenan injection and percentage inhibition was calculated by using following formula: […]"}}, "data": [{"smiles": "O=C(O)Cc1ccccc1Nc1c(Cl)cccc1Cl", "note": "[Diclofenac]", "values": [{"measurement": "percentage inhibition 1 h", "setting": "[1]; 1 h post carrageenan, oral, dose per group 10-50 mg/Kg", "result": 64, "unit": "%"}, {"measurement": "percentage inhibition 3 h", "setting": "[1]; 3 h post carrageenan, oral, dose per group 10-50 mg/Kg", "result": 84, "unit": "%"}, {"measurement": "percentage inhibition 5 h", "setting": "[1]; 5 h post carrageenan, oral, dose per group 10-50 mg/Kg", "result": 93, "unit": "%"}, {"measurement": "percentage inhibition 6 h", "setting": "[1]; 6 h post carrageenan, oral, dose per group 10-50 mg/Kg", "result": 97, "unit": "%"}, {"measurement": "Average percentage inhibition", "setting": "[1]; average of 1, 3, 5, 6 h", "result": 85, "unit": "%"}, {"measurement": "Percentage inhibition (%) 3HR", "setting": "[2]; 3 hr post carrageenan, oral, AKBA10+sesame oil 50 mg/Kg, SSA >1.2×10^3 m^2/kg, Diclofenac 10 mg/kg", "result": 66, "unit": "%"}, {"measurement": "Percentage inhibition (%) 6HR", "setting": "[2]; 6 hr post carrageenan, oral, AKBA10+sesame oil 50 mg/Kg, Diclofenac 10 mg/kg", "result": 98, "unit": "%"}, {"measurement": "Average percentage inhibition", "setting": "[2]; average of 3HR and 6HR", "result": 82, "unit": "%"}, {"measurement": "Percentage inhibition in 6 Hours", "setting": "[3]", "result": 86, "unit": "%"}]}]}
